According to US20120065261A1, “Creatine compositions for skin treatment” (Avicena Group, Inc., priority 2006, published 2012):

Columns and labels:
[1] = tested on: type I collagen levels in human dermal fibroblasts; test: Type I collagen in human dermal fibroblast conditioned medium (sandwich ELISA); format: cell-based; details: for levels of type I collagen: freshly prepared solutions
Method: Normal human dermal fibroblasts (passage 5, lot number 7F1245, Cambrix, Walkersville, Md.) were seeded in a 96-well plate in DMEM medium (high glucose) containing 5% fetal calf serum and grown to late subconfluent stage. Two sets of aqueous solutions of 10 mg/mL of creatine ascorbate, creatine monohydrate, creatine pyruvate, ascorbic acid and magnesium ascorbyl phosphate were prepared in Type I water. The first set of solutions were prepared immediately before being added to cell cultures. The second set of solutions were preincubated at pH 4.0 (±0.1) five days, then the solutions were lyophilized and the substrates were redissolved in water at 10 mg/mL prior to being added to the cell cultures. Both the freshly prepared solutions and the solutions of preincubated test materials were administered to the cells, and cell culture conditioned media was harvested 5 days after the start of the experiment and tested for type I collagen by sandwich ELISA using affinity purified antibodies, followed by streptavidin-avidin-HRP conjugate and ABTS, according to standard ELISA protocol. The colorimetric signal proportional to collagen content was measured with a microplate spectrophotometer at 405 nm. For references describing this method, see Dobek et al. “J. Dermatol. Sci.” 8:18 (1994) and Zhao et al. “Phytomedicine” 12:132 (2005).

human dermal fibroblasts = test: Mitochondrial metabolism in human dermal fibroblast cultures (MTT assay); format: cell-based; details: for stimulation of mitochondrial metabolism / inhibition of mitochondrial metabolism / stimulatory effect on mitochondrial metabolism: freshly prepared; for effect on mitochondrial metabolism: preincubated solutions (pH 4.0, five days); for inhibition of mitochondrial metabolism: 100 μg/mL and 1000 μg/mL; for stimulatory effect on mitochondrial metabolism: concentrations tested
Method: The purpose of this assay was to determine the effect creatine ascorbate, creatine monohydrate and creatine pyruvate on the mitochondrial metabolism on the entire cell culture using an MTT assay. The MTT assay measures the activity of succinate dehydrogenase, a key enzyme in the respiratory electron transport chain in mitochondria.
Two sets of aqueous solutions of 10 mg/mL of creatine ascorbate, creatine monohydrate, creatine pyruvate, ascorbic acid and magnesium ascorbyl phosphate were prepared in Type I water. The first set of solutions were prepared immediately before being added to cell cultures. The second set of solutions were preincubated at pH 4.0 (±0.1) five days, then the solutions were lyophilized and the substrates were redissolved in water at 10 mg/mL prior to being added to the cell cultures. Normal human dermal fibroblasts (passage 5, lot number 7F1254, Cambrex, Walkersville, Md.) were seeded in a 96-well plate in phenol red-free DMEM medium (high glucose) containing 2.5% fetal calf serum at 2500 cells per well and test materials, both freshly prepared solutions and preincubated solutions, were added 24 hours later. At the end of the incubation period MTT (3-(4,5-dimethylthiazol-2-yl)-2,5-diphenyltetrazolium bromide) was added to the cell cultures and incubation was pursued for an additional three hours. Culture media were then discarded, the cells were rinsed and the intracellular MTT reduction product, formazan, was solubilized in ethanol/acetic acid. The colorimetric signal proportional to the mitochondrial activity in the cell cultures was measured with a microplate spectrophotometer at 570 nm. For references describing this method, see Berridge et al. “Arch. Biochem. Biophys.” 303:474-482 (1993) and Murimaki et al. “Biochem. Pharmacol.” 44:2191-2197 (1992).

[2] = tested on: p53 expression in human dermal fibroblasts; test: p53 expression induced by UVB irradiation of human dermal fibroblasts (sandwich ELISA); format: cell-based; details: 50 μg/ml; UVB 0.15 mW/cm^2; 4 hours accumulation
Method: Confluent human dermal fibroblasts were trypsinized, counted and plated at 750,000 cells/well in eight 6-well plates in phenol-free DMEM medium (4 g/L glucose) supplemented with 5% serum. After three hours, creatine ascorbate, creatine monohydrate, creatine pyruvate, ascorbic acid and magnesium ascorbyl phosphate in a concentration of 50 μg/ml were added and cells were incubated overnight at 37° C. in 5% CO2 atmosphere. After 24 hours, p53 protein was induced by UVB irradiation at 0.15 mW/cm^2 for […] and was allowed to accumulate for 4 hours. The cells were then lyzed and total p53 was quantified by sandwich ELISA. The p53 values were standardized with regard to total protein values determined with Bradford reagent. For a description of this assay, see Carlisle et al. “Toxicological Sciences” 55:60 (2000).

[3] = tested on: Clostridium collagenase IV; test: Metalloproteinase (collagenase) activity, Enzcheck kit with quenched fluorescent gelatin; format: biochemical; details: after incubation of 60 minutes
Method: Metalloproteinase (collagenase) activity was measured with Enzcheck kit from Molecular Probes using quenched fluorescent gelatin and Clostridium collagenase IV, a generic collagenase. Creatine ascorbate, creatine monohydrate, creatine pyruvate, ascorbic acid and magnesium ascorbyl phosphate, in concentrations of 1000 μg/mL, 100 μg/mL and 10 μg/mL, were incubated in the presence of a collagenase substrate (quenched fluorescing-linked gelatin) and in the presence of the proteolytic enzyme. Phenantroline, a potent metalloproteinase inhibitor was used as a positive control. The kinetics of the release of the digested, fluorescent gelatin were measured at excitation/emission wavelengths of 485/530 nm.

[4] = tested on: UV-induced lipid peroxidation; test: UV-induced lipid peroxidation of lecithin dispersions (TBARS); format: biochemical; details: 500 μg/mL; UVB irradiation 3 hours
Method: Test materials were added to dispersions of lecithin (a natural phospholipid) and irradiated with UVB light (11,000 μW/cm^2 at the source). After 3 hours, trichloroacetic acid and thiobarbituric acids were added and the concentration of Thiobarbituric Acid Reactive Substance (TBARS), such as malondialdehyde, was measured spectroscopically (malonaldehyde is a breakdown product generated spontaneously from oxidized lipid) at 550 nm using an UV microplate reader. For references describing this method, see Pelle et al. “Arch. Biochem. Biophys.” 283:234-40 (1990); Wang et al. “J. Ethnopharmacol.” 82:169-175 (2002).

Mushroom tyrosinase = test: Tyrosinase activity in vitro (L-Dopa substrate); format: biochemical; details: for inhibition of tyrosinase activity compared to the control: 5 μg/mL
Method: Tyrosinase activity was measured according to the method described by Pomerantz “Biochem. Biophys. Res. Commun.” 16(2):188-194 (1964). Mushroom tyrosinase stock solution was prepared in PBS at 2000 U/mL and stored at […] in 1 mL aliquots. Final concentration was 5 U/well (25 U/mL). Creatine ascorbate, creatine monohydrate, creatine pyruvate, ascorbic acid and magnesium ascorbyl phosphate were dissolved in PBS and further dilutions were made with Type I water. L-Dopa stock solution was 20 mM. The tyrosinase substrate was prepared in PBS. The assays were performed in a 96-well microtiter plates and read at 490 nm.

[5] = Stability of aqueous solutions at pH 4.0 (HPLC); format: physicochemical; details: 10 mg/mL, pH 4.0, 5 days at room temperature
Method: Aqueous solutions of 10 mg/mL of creatine ascorbate, creatine monohydrate, creatine pyruvate, ascorbic acid and magnesium ascorbyl phosphate were prepared in Type I water and brought to pH 4.0 (±0.1) by adding acetic acid (creatine ascorbate, creatine monohydrate and magnesium ascorbyl phosphate) or sodium hydroxide (ascorbic acid and creatine pyruvate). The solutions were incubated for 5 days at room temperature and were subsequently lyophilized, redissolved within 60 minutes of analysis and analyzed by isocratic HPLC on a C18 RF column (250 mm×4.6 mm) at 1 mL/min.

[6] = highest concentration, 1000 μg/mL

Compound | levels of type I collagen ([1]; 10 μg/mL and 100 μg/mL) | levels of type I collagen [1, 6] | effect on mitochondrial metabolism (human dermal fibroblasts) | effect on p53 expression induced by UVB irradiation [2] | inhibition of collagenase activity compared to the control [3] | inhibition of mitochondrial metabolism (human dermal fibroblasts) | stimulatory effect on mitochondrial metabolism (human dermal fibroblasts) | inhibition of tyrosinase activity compared to the control (Mushroom tyrosinase) | loss of the absorbance peak / decrease of absorption [5] | other results
CN(CC(=O)O)C(=N)N.O [creatine monohydrate] | moderately increased | better than creatine ascorbate and ascorbic acid | stimulated mitochondrial metabolism, although not to the extent of the freshly prepared creatine monohydrate | significantly inhibited | Neither creatine monohydrate nor magnesium ascorbyl phosphate showed any inhibitory activity |  |  |  |  | stimulation of mitochondrial metabolism (human dermal fibroblasts; 10 μg/mL): 0%; stimulation of mitochondrial metabolism (human dermal fibroblasts; 100 μg/mL): 15%; stimulation of mitochondrial metabolism (human dermal fibroblasts; 1000 μg/mL): 28%
creatine ascorbate | significantly increased | significantly lower | superior to preincubated ascorbic acid | significantly inhibited | 11.5% | inhibited mitochondrial metabolism | did not have a stimulatory effect | 26% |  | inhibition of lipid peroxidation [4]: 21%; stimulation of type I collagen compared with reference substances ([1]; 100 μg/mL): comparable to that of magnesium ascorbyl phosphate and better than ascorbic acid; stimulation of type I collagen levels above the non-treated control (water) ([1]; dose-dependent, conclusion of both assays (fresh and preincubated)): about 50%; tyrosinase inhibitory activity compared with reference substances (Mushroom tyrosinase): lower than the activity of ascorbic acid and was similar to the activity of magnesium ascorbyl phosphate; inhibitory effect on the tyrosinase activity (Mushroom tyrosinase; 500 μg/mL and 50 μg/mL): significant inhibitory effect; degradation in aqueous solution [5]: minor to no degradation
O=C1O[C@H]([C@@H](O)CO)C(O)=C1O [ascorbic acid, reference compound] |  |  |  | no effect | 39% | inhibited mitochondrial metabolism | did not have a stimulatory effect |  | 28% | inhibitory effect on mitochondrial metabolism (human dermal fibroblasts; preincubated, concentration not given): 24%
creatine pyruvate | moderately increased | better than creatine ascorbate and ascorbic acid | not to be inhibitory | significantly inhibited | 27% | 17% |  | no inhibition | 42% | inhibition of tyrosinase activity (Mushroom tyrosinase; 50 μg/mL): 10%; inhibition of tyrosinase activity (Mushroom tyrosinase; 500 μg/mL): 100%
O=C1O[C@H]([C@@H](O)CO)C([O-])=C1OP(=O)([O-])[O-].O=C1O[C@H]([C@@H](O)CO)C([O-])=C1OP(=O)([O-])[O-].[Mg+2].[Mg+2].[Mg+2] [magnesium ascorbyl phosphate, reference compound] |  |  | exhibited stimulation | significantly inhibited | Neither creatine monohydrate nor magnesium ascorbyl phosphate showed any inhibitory activity |  | greatest stimulatory activity |  |  | levels of type I collagen ([1]; all concentrations, 5 days): large increase; stimulation of type I collagen ([1]; results of both assays (fresh and preincubated)): strong stimulation
